Experimental data: US20250100996A1, “HETEROCYCLOALKYL AND HETEROARYL COMPOUNDS AND PHARMACEUTICAL COMPOSITIONS THAT MODULATE IKZF2” (Plexium, Inc., priority 2021, published 2025)

Legend:
[1] = biological target: T1, human E3 ligase component cereblon (CRBN) (Homo sapiens, UniProt Q96SW2); assay: Cereblon (CRBN) target engagement, NanoBRET TE Intracellular E3 Ligase Assay in transfected HEK-293T cells; details: read-out: CRBN Binding EC50
T1 construct: host or cells: HEK293T
Experimental: HEK293T cells were harvested ca. 75% confluent with trypsin and plated (500,000 cells/well) in a 6-well tissue culture plate in 2 mL of Dulbecco's Modified Eagle Medium (DMEM)^+10% Fetal Bovine Serum (FBS) and incubated overnight at 37° C.
The NanoLuc-CRBN fusion vector (Nluc-CRBN; Promega) contains the coding region of human E3 ligase component cereblon (CRBN) fused to the C-terminus of the NanoLuc luciferase coding region. A mixture of 10 ng Nluc-CRBN and 990 ng DDB1 Expression Vector (Promega) was added to 125 μL Opti-Minimum Essential Medium (Opti-MEM™; Thermo Fisher) along with […] P3000 reagent (Thermo Fisher) in a 1.5 mL epppendorf tube. This solution was added to Lipofectamine 3000 transfection reagent (5 μL; Thermo Fisher) in Opti-MEM (125 μL), mixed well, and incubated for 15 minutes at room temperature. The transfection mixture was added dropwise to cells and incubated overnight at 37° C., 5% CO2. Following transfection, cells were washed once with PBS, and trypsin (250 μL) was added and incubated 30-45 see to dislodge cells. Complete media (2 mL) was added to resuspend cells to form a single cell suspension. Cells were centrifuged at 320×g for 5 min at room temperature, the supernatant was removed, and the cell pellet resuspended in Opti-MEM (3 mL; wash step repeated ×2). After final resuspension in 5 mL Opti-MEM, cells were counted and resuspended at 200,000 cells/mL in Opti-MEM.
Cereblon target engagement was monitored by Bioluminescence Resonance Energy Transfer (BRET) in transfected HEK-293T cells using the NanoBRET TE Intracellular E3 Ligase Assay (Promega). Briefly, 384-well plates (white opaque plates, Corning 3574, low binding surface) were seeded with transfected HEK-293T cells (38 μL/well). 2 μL of 10 μM CRBN tracer (diluted 1:5 in Tracer Dilution Buffer) was added to each well. Plates were centrifuged at 320×g for 1 min at room temperature. Test compounds were added in a 11-point dilution series (typically 10 μM to 100 pM) using a TECAN D300e Digital Dispenser. Plates were shaken for 2 minutes on a microplate shaker to mix compounds. Plates were centrifuged at 320×g for 1 min at room temperature, and subsequently incubated for 2 hours at 37° C.
After incubation, plates were allowed to cool to room temperature for 15 minutes. 20 μL of 3× Complete NanoBRET™ Nano-Glo® Substrate plus Inhibitor Solution (Promega, 1:166 Substrate and 1:500 dilution of Extracellular NanoLuc® Inhibitor diluted in Opti-MEM) were added to each well. Plates were incubated with shaking at room temperature for 3 minutes covered with foil. Plates were read on a CLARIOstar microplate reader (BMG LabTech), measuring at 450 nm (donor emission) and 610 nm (acceptor emission). The IC50 values were determined by regression to best fit four-parameter logistic curves using GraphPad Prism.

IKZF2 (Helios) [2] = biological target: T2, IKZF2 (Helios) (Homo sapiens, UniProt Q96SW2+Q9UKS7); assay: IKZF2 reporter degradation assay (HEK 293T IKZF2-mNeonGreen reporter cell line); format: cell-based; details: @ 1 μM, HEK 293T IKZF2-mNeonGreen reporter, 24 hours incubation; for inhibition at 1 µM: HEK-293T, 24 h
T2 construct: Leu-Asp junction (codons ctcgac before the linker); mScarlet (behind P2A) (C, cleaved yes); expressed in transfected cells
T2 sequence (Q9UKS7 whole entry): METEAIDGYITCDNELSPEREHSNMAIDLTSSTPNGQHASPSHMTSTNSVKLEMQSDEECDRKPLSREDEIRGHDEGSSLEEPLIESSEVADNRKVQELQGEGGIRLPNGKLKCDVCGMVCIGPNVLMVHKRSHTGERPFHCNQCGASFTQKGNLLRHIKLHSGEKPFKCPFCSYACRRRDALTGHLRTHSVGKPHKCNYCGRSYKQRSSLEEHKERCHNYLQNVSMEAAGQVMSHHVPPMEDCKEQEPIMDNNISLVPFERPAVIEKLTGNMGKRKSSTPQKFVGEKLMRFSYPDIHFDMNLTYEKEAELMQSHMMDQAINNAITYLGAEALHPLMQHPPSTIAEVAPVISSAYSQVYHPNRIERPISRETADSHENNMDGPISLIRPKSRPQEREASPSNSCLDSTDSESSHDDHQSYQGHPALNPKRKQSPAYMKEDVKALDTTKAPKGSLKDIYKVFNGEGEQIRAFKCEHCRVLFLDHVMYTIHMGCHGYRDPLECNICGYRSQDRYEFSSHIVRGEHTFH
T2 sequence (Q96SW2 whole entry): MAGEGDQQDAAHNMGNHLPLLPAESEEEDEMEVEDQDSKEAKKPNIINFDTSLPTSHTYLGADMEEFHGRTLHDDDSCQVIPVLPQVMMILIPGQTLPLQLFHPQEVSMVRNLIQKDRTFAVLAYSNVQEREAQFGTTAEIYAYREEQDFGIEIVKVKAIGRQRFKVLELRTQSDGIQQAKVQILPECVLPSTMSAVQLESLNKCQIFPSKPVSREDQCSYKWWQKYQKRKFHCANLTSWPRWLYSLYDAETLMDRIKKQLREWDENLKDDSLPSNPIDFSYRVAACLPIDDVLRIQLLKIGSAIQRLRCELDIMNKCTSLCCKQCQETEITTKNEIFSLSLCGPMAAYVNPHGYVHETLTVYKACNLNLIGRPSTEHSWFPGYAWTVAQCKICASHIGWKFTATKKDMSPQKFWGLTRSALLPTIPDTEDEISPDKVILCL
T2 sequence (Q16531 whole entry partner): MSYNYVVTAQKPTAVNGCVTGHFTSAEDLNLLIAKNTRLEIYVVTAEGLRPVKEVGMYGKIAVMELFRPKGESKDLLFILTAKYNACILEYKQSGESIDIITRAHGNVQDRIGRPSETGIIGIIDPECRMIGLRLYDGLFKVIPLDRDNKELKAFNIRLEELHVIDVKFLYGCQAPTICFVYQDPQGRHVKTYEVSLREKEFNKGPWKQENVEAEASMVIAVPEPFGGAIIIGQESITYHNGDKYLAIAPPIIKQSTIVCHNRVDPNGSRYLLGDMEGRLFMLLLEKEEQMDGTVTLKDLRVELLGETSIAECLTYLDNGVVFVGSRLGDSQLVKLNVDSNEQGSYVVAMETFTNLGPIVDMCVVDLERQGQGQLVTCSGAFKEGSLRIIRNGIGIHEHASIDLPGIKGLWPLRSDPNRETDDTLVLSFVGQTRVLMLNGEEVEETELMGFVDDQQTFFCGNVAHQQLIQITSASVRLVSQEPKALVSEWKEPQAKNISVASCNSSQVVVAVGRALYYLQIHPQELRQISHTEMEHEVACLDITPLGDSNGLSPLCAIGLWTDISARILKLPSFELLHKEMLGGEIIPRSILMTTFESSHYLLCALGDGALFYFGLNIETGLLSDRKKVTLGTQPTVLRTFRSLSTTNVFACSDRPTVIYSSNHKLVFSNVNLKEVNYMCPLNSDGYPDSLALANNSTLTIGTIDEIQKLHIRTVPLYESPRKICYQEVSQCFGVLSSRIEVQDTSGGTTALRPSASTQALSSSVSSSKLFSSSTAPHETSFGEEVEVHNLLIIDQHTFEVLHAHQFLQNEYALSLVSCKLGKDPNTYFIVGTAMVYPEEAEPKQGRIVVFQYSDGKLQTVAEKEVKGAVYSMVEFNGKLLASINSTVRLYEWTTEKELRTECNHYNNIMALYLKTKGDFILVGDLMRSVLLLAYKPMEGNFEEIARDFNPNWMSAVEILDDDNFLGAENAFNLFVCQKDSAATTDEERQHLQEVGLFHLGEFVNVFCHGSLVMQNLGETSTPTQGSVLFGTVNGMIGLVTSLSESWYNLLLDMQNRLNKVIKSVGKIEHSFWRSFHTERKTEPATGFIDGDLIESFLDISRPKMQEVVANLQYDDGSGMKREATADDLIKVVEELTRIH
Source text: (§1) Polycistronic plasmids were constructed for the mammalian expression of fluorescent reporter fusions of human transcription factors IKZF1 (Ikaros), IKZF2 (Helios), and IKZF3 (Aiolos). The respective protein sequences had their C-terminal end joined to a GGGGS linker repeated three times followed by mNeonGreen, P2A sequence, and mScarlet. The DNA sequences of the open reading frames are as follows:
(§2) IKZF1, IKZF2, and IKZF3 constructs were cloned into the UCOE Hygromycin expression vectors (Millipore Sigma). Reporter constructs were transfected using cationic lipid reagents into adherent HEK 293T cells and stable integrants were selected by treatment with 200 μg/mL hygromycin B. Clonal populations were obtained from the population of stable integrants either by limiting dilution or fluorescence activated cell sorting.
(§3) The clonal stable cell lines were maintained under constant 200 μg/mL hygromycin B selection while being passaged for use in the degradation assays. […] The fluorescence intensity of the IKZF1/2/3-mNeonGreen (FITC channel) and mScarlet (PE channel) reporters were routinely analyzed by flow cytometry to confirm consistent expression levels between experiments.
(§4) The IKZF1/IKZF2/IKZF3 degradation assays were carried out by harvesting the HEK 293T reporter cell lines and resuspending the cells in media formulated for reduced background fluorescence (FluoroBrite; Thermo Fisher). The respective cell lines were seeded at a density of 4000 cells/well into black-walled 384-well optical grade assay tissue culture plates. The cells were incubated overnight at 37° C. to allow for attachment to the assay plate. Dilutions of the compounds were prepared in DMSO from 10 mM compound stocks. The assay plates were treated with appropriate concentrations of the compounds by dispensing the DMSO dilutions in quadruplicate wells with an upper limit of 0.5% final DMSO.
(§5) After 24 hours incubation with the compounds, the assay plates were imaged on an ImageXpress Pico microscopy system (cells maintained at 37° C. during imaging) to obtain the fluorescent readouts. The assay plates were imaged in the FITC and Tetramethylrhodamine (TRITC) channels to obtain the mNeonGreen fluorescence intensity (reporter degradation data) and mScarlet fluorescence intensity (for cell segmentation). 293T-IKZF1 and 293T-IKZF3 reporter cell lines were imaged with exposures of 500 milliseconds (ms) for both FITC and TRITC channels, while the 293T-IKZF2 reporter cell line was imaged with exposures of 1000 ms for FITC and 1250 ms for TRITC. The resulting data was analyzed with Cell Reporter Xpress software using the 2-channel cell scoring analysis with a “percent positive” readout. The TRITC channel was selected for the “nuclei” segmentation with a threshold of 20 while the FITC channel was selected for the “Marker 1” segmentation and a threshold of 100 for the IKZF1 and IKZF3 reporter lines. […] The minimum segmentation width was set to 6 micrometers and the maximum segmentation width was set to 15 micrometers for all cell lines. The DC50 calculations were determined by regression to best fit four-parameter logistic curves using GraphPad Prism.

IKZF2 (Helios) [3] = biological target: T3, IKZF2 (Helios) (Homo sapiens, UniProt Q9UKS7); assay: as above; format: cell-based; details: HEK 293T IKZF2-mNeonGreen reporter, 24 hours incubation
T3 construct: Leu-Asp junction (codons ctcgac before the linker); mScarlet (behind P2A) (C, cleaved yes); expressed in transfected cells
T3 sequence (Q9UKS7 whole entry): as the sequence (Q9UKS7 whole entry) above
T3 sequence (Q96SW2 whole entry, further chain): as the sequence (Q96SW2 whole entry) above
T3 sequence (Q16531 whole entry partner): as the sequence (Q16531 whole entry partner) above
Source text: as §1, §2, §3, §4, §5

IKZF3 (Aiolos) = biological target: T4, IKZF3 (Aiolos) (Homo sapiens, UniProt Q9UKT9); assay: IKZF3 reporter degradation assay (HEK 293T IKZF3-mNeonGreen reporter cell line); format: cell-based; details: HEK 293T IKZF3-mNeonGreen reporter, 24 hours incubation
T4 construct: Leu-Asp junction (codons ctcgac before the linker); mScarlet (behind P2A) (C, cleaved yes); expressed in transfected cells
T4 sequence (Q96SW2 whole entry partner): as the sequence (Q96SW2 whole entry) above
T4 sequence (Q16531 whole entry partner): as the sequence (Q16531 whole entry partner) above
T4 sequence (Q9UKT9 whole entry): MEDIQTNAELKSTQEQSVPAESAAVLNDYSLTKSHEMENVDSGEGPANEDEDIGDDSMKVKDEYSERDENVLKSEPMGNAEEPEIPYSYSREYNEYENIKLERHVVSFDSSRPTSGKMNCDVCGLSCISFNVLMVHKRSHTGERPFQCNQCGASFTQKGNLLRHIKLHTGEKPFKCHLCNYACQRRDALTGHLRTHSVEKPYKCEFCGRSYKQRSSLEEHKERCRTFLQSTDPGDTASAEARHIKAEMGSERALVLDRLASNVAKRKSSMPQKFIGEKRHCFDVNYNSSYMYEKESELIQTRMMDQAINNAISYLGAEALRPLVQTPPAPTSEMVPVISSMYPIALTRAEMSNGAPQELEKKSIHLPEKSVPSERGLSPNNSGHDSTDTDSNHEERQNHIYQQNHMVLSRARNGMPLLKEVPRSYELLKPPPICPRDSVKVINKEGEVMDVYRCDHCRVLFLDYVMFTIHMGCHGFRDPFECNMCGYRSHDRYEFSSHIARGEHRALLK
Source text: as §1, §2, §3, §4, §5

T1 sequence (Q96SW2 whole entry): as the sequence (Q96SW2 whole entry) above
T1 sequence (Q16531 whole entry partner): as the sequence (Q16531 whole entry partner) above

## O=C1CCC(N2Cc3cc(O[C@H]4CCCC[C@@H]4N4CC(c5ccncc5F)C4)ccc3C2=O)C(=O)N1 (single isomer, unassigned) [Compound 103-B]
[1]
  EC50: 0.059 µM
IKZF2 (Helios) [2]
  IKZF2 % Degradation @ 1 μM: 69.9%
IKZF2 (Helios) [3]
  DC50: 0.018 µM
IKZF3 (Aiolos)
  DC50: > 30 µM

## CC1(C(=O)N2CCC(C3CN([C@H]4CCCC[C@@H]4Oc4ccc5c(c4)CN(C4CCC(=O)NC4=O)C5=O)C3)CC2)CCC1 (stereo partly drawn) [Compound 25-A, 3-(5-(((1S,2S)-2-(3-(1-(1-methylcyclobutane-1-carbonyl)piperidin-4-yl)azetidin-1-yl)cyclohexyl)oxy)-1-oxoisoindolin-2-yl)piperidine-2,6-dione]
[1]
  EC50: 0.004 µM
IKZF2 (Helios) [2]
  inhibition at 1 µM: 84.4%
IKZF2 (Helios) [3]
  DC50: 0.001 µM
IKZF3 (Aiolos)
  DC50: > 30 µM

## O=C1CCC(N2Cc3cc(O[C@H]4CCCC[C@@H]4N4CC(c5ncc(Cl)cn5)C4)ccc3C2=O)C(=O)N1 (single isomer, unassigned) [Compound 111-B]
[1]
  EC50: 0.007 µM
IKZF2 (Helios) [2]
  inhibition at 1 µM: 76%
IKZF2 (Helios) [3]
  DC50: 0.004 µM
IKZF3 (Aiolos)
  DC50: > 30 µM

## O=C1CCC(N2Cc3cc(O[C@H]4CCCC[C@@H]4N4CC(c5ncncc5Cl)C4)ccc3C2=O)C(=O)N1 (single isomer, unassigned) [Compound 92-B]
[1]
  EC50: 0.012 µM
IKZF2 (Helios) [2]
  inhibition at 1 µM: 81.7%
IKZF2 (Helios) [3]
  DC50: 0.007 µM
IKZF3 (Aiolos)
  DC50: > 30 µM

## O=C1CCC(N2Cc3cc(OC4CCCCC4N4CC(C(=O)N5CCCCC5)C4)ccc3C2=O)C(=O)N1 (single isomer, unassigned) [Compound 22-A, 3-(1-oxo-5-((2-(3-(piperidine-1-carbonyl)azetidin-1-yl)cyclohexyl)oxy)isoindolin-2-yl)piperidine-2,6-dione]
[1]
  EC50: 0.031 µM
IKZF2 (Helios) [2]
  inhibition at 1 µM: 75.9%
IKZF2 (Helios) [3]
  DC50: 0.011 µM
IKZF3 (Aiolos)
  DC50: > 30 µM

## O=C1CCC(N2Cc3cc(O[C@@H]4CCCC[C@H]4N4CC(c5ccc(C(F)(F)F)cn5)C4)ccc3C2=O)C(=O)N1 (single isomer, unassigned) [Compound 129-B]
[1]
  EC50: 0.038 µM
IKZF2 (Helios) [2]
  IKZF2 % Degradation @ 1 μM: 42.4%
IKZF2 (Helios) [3]
  DC50: 0.02 µM
IKZF3 (Aiolos)
  DC50: > 30 µM

## O=C1CCC(N2Cc3cc(O[C@@H]4CCCC[C@@H]4N4CC(c5ncncc5Cl)C4)ccc3C2=O)C(=O)N1 (mixture of isomers) [Compound 139-B, Rac-3-(5-(((cis)-2-(3-(5-chloropyrimidin-4-yl)azetidin-1-yl)cyclohexyl)oxy)-1-oxoisoindolin-2-yl)piperidine-2,6-dione]
[1]
  EC50: 0.035 µM
IKZF2 (Helios) [2]
  inhibition at 1 µM: 62.4%
IKZF2 (Helios) [3]
  DC50: 0.033 µM
IKZF3 (Aiolos)
  DC50: > 30 µM

## O=C1CCC(N2Cc3cc(OC4CCCC4N4CC(c5c[nH]c6ccccc56)C4)ccc3C2=O)C(=O)N1 (stereo not shown) [Compound 181-B, 3-(5-((2-(3-(1H-indol-3-yl)azetidin-1-yl)cyclopentyl)oxy)-1-oxoisoindolin-2-yl)piperidine-2,6-dione]
[1]
  EC50: 0.013 µM
IKZF2 (Helios) [2]
  inhibition at 1 µM: < 30%
IKZF2 (Helios) [3]
  DC50: 0.034 µM
IKZF3 (Aiolos)
  DC50: > 30 µM

## CC(C)(C)OC(=O)N1CCC(C2CN([C@H]3CCCC[C@@H]3Oc3ccc4c(c3)CN(C3CCC(=O)NC3=O)C4=O)C2)CC1 (stereo partly drawn) [Compound 26-A, tert-butyl 4-(1-((1S,2S)-2-((2-(2,6-dioxopiperidin-3-yl)-1-oxoisoindolin-5-yl)oxy)cyclohexyl)azetidin-3-yl)piperidine-1-carboxylate]
[1]
  EC50: 0.001 µM
IKZF2 (Helios) [2]
  inhibition at 1 µM: 74.7%
IKZF2 (Helios) [3]
  DC50: 0.001 µM
IKZF3 (Aiolos)
  DC50: > 30 µM

## O=C1CCC(N2Cc3cc(O[C@H]4CCCC[C@@H]4N4CC(c5ccc(C(F)(F)F)cn5)C4)ccc3C2=O)C(=O)N1 (single isomer, unassigned) [Compound 131-B]
[1]
  EC50: 0.021 µM
IKZF2 (Helios) [2]
  IKZF2 % Degradation @ 1 μM: 94.1%
IKZF2 (Helios) [3]
  DC50: 0.005 µM
IKZF3 (Aiolos); @ 1 μM
  IKZF3 % Degradation @ 1 μM: 34.3%
IKZF3 (Aiolos)
  DC50: 0.0414 µM

## O=C1CCC(N2Cc3cc(O[C@H]4CCCC[C@@H]4N4CC(c5ncc(C6CC6)cn5)C4)ccc3C2=O)C(=O)N1 (single isomer, unassigned) [Compound 134-B]
[1]
  EC50: 0.005 µM
IKZF2 (Helios) [2]
  inhibition at 1 µM: 70.4%
IKZF2 (Helios) [3]
  DC50: 0.005 µM
IKZF3 (Aiolos)
  DC50: > 30 µM

## O=C1CCC(N2Cc3cc(O[C@H]4CCCC[C@@H]4N4CC(c5ncc(Br)cn5)C4)ccc3C2=O)C(=O)N1 (single isomer, unassigned) [Compound 108-B]
[1]
  EC50: 0.006 µM
IKZF2 (Helios) [2]
  inhibition at 1 µM: 74.6%
IKZF2 (Helios) [3]
  DC50: 0.006 µM
IKZF3 (Aiolos)
  DC50: > 30 µM

## O=C1CCC(N2Cc3cc(O[C@H]4CCCC[C@@H]4N4CC(c5ccnc6[nH]ccc56)C4)ccc3C2=O)C(=O)N1 (single isomer, unassigned) [Compound 113-B]
[1]
  EC50: 0.03 µM
IKZF2 (Helios) [2]
  inhibition at 1 µM: 29.7%
IKZF2 (Helios) [3]
  DC50: 0.062 µM

## O=C1CCC(N2Cc3cc(O[C@H]4CCCC[C@H]4N4CC(c5cncc(Cl)c5)C4)ccc3C2=O)C(=O)N1 (single isomer, unassigned) [Compound 115-B]
[1]
  EC50: 0.064 µM
IKZF2 (Helios) [2]
  inhibition at 1 µM: 21.7%
IKZF2 (Helios) [3]
  DC50: 0.177 µM

## O=C1CCC(N2Cc3cc(O[C@H]4CCCC[C@H]4N4CC(c5ccc(Cl)cn5)C4)ccc3C2=O)C(=O)N1 (single isomer, unassigned) [Compound 98-B]
[1]
  EC50: 0.055 µM
IKZF2 (Helios) [2]
  inhibition at 1 µM: 41.3%
IKZF2 (Helios) [3]
  DC50: 0.111 µM
